Data from patent US7069876B2, “Methods for raising pre-adult anadromous fish” (MariCal, Inc., priority 2000, dated 2006).

Tested on: shark kidney calcium receptor (SKCaR)
Assay: FURA-2 ratio imaging fluorescence assay in HEK cells expressing SKCaR
Type: cell-based, dogfish (Squalus acanthias)
Settings: 10 mM amino acid or AA Mixture; extracellular Ca2+ 0.5–20 mM (FIG. 52)
Description: Full length recombinant dogfish (Squalus acanthias) shark kidney calcium receptor ([…] NO.: 17) was expressed in human embryonic kidney […] ligated into the mammalian expression vector […] and transfected into HEK cells using standard techniques. The presence of SKCaR protein in transfected cells was verified by western blotting. Activation of SKCaR and its ability to respond to individual amino acids or mixtures thereof was quantified using a well characterized FURA-2 ratio imaging fluorescence assay where increases in intracellular Ca^2+ produced by SKCaR activation are detected and expressed as % normalized intracellular calcium response to receptor activation. Bai, M., S. et al., J. Biol. Chem., 32:19537-19545 (1996); Conigrave, A, et al., Proc. Nat. Acad. Sci. 97:4814-4819 (2000). […] Baseline extracellular Ca^2+ concentration was 0.5 mM. Aliquots of Ca^2+ were added to produce final extracellular concentrations of 2.5 mM, 5 mM, 7.5 mM, 10 mM and 20 mM Ca^2+ with changes in the fluorescence recorded.

## CC[C@H](C)[C@H](N)C(=O)O [Ile, L-Isoleucine]
  effect on SKCaR's response to extracellular Ca2+: increase SKCaR's response to a given Ca^2+ concentration

## N[C@@H](Cc1ccccc1)C(=O)O [Phe, Phenylalanine]
  effect on SKCaR's response to extracellular Ca2+: increase SKCaR's response to a given Ca^2+ concentration
